From US12084436B2, “Heterocyclic compound” (Takeda Pharmaceutical Company Limited, priority 2019, dated 2024)

The compounds below were run against T1, HDAC6 enzyme (Homo sapiens, UniProt Q9UBN7) (assay: HDAC6 enzyme inhibitory assay (HDAC-Glo I/II Assay kit, luminescence)). Conditions: 10 μM test compound; wells without enzyme = 100% inhibition; read-out: HDAC6 inhibitory rate (%) (10 μM).
T1 construct: prepared by transducing full length HDAC6 gene into Sf-9 insect cells; GST; purchased SignalChem; host or cells: Sf-9 insect cells
T1 sequence (Q9UBN7 1-1215): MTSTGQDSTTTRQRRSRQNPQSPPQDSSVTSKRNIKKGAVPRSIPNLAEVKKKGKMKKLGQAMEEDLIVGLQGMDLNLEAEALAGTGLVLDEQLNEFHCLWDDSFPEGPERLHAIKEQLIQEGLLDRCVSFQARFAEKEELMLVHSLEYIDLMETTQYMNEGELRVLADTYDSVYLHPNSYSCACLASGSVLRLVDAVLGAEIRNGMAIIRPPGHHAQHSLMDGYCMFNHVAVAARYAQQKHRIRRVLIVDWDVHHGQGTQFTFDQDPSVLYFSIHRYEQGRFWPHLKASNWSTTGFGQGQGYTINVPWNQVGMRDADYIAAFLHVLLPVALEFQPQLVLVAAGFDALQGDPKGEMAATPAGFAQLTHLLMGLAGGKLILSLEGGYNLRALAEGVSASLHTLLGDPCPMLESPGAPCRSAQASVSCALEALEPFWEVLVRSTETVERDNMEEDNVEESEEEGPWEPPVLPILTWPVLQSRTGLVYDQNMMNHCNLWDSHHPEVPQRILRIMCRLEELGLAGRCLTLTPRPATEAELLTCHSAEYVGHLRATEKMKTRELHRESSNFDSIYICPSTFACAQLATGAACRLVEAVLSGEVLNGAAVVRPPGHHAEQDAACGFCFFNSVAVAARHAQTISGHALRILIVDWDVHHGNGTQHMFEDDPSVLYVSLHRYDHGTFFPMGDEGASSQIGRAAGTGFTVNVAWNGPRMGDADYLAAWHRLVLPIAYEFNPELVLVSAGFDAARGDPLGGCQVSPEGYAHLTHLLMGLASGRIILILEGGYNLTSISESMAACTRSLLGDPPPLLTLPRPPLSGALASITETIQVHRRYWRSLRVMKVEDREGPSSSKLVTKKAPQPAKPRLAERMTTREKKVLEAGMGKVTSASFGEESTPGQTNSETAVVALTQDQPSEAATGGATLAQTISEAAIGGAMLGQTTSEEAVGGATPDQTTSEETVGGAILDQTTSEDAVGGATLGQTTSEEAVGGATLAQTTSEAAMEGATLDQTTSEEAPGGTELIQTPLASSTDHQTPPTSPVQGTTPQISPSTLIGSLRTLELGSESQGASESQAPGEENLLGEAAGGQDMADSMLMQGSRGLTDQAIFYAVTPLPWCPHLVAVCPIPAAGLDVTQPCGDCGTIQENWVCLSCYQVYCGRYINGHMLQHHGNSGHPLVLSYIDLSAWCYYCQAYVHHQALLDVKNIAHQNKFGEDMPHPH
Type: biochemical
Summary of the method: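 Full-length human HDAC6, GST-purified from Sf-9 cells, was preincubated with compound for 60 min at room temperature in Tris-HCl pH 7.5 buffer with glutathione and Tween-20. Substrate-developer was then added, and luminescence was read after 20 min at room temperature. Inhibition was expressed relative to no-enzyme wells, taken as 100% inhibition.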

Compound | inhibition at 10 µM [%]
CN(CC1CC(F)(F)C1)N1Cc2ccc(-c3nnc(C(F)F)o3)cc2C1=O [Example 64c, 2-{[(3,3-difluorocyclobutyl)methyl] (methyl)amino}-6-[5-(difluoromethyl)-1,3,4-oxadiazol-2-yl]-2,3-dihydro-1H-isoindol-1-one] | 99
Cc1nc(Cn2ccnc2-c2cc(F)cc(-c3nnc(C(F)F)o3)c2)sc1C [Example 65a, 2-(difluoromethyl)-5-(3-{1-[(4,5-dimethyl-1,3-thiazol-2-yl)methyl]-1H-imidazol-2-yl}-5-fluorophenyl)-1,3,4-oxadiazole] | 100
CN(Cc1ccccc1C(F)F)N1Cc2ccc(-c3nnc(C(F)F)o3)cc2C1=O [Example 65c, 6-[5-(difluoromethyl)-1,3,4-oxadiazol-2-yl]-2-[{[2-(difluoromethyl)phenyl]methyl} (methyl)amino]-2,3-dihydro-1H-isoindol-1-one] | 101
N#Cc1ccc(Cn2ccnc2-c2cc(F)cc(-c3nnc(C(F)F)o3)c2)cn1 [Example 66a, 5-[(2-{3-[5-(difluoromethyl)-1,3,4-oxadiazol-2-yl]-5-fluorophenyl]-1H-imidazol-1-yl)methyl]pyridine-2-carbonitrile] | 98
CN(C1CC1)N1Cc2ccc(-c3nnc(C(F)F)o3)cc2C1=O [Example 66c, 2-[cyclopropyl(methyl)amino]-6-[5-(difluoromethyl)-1,3,4-oxadiazol-2-yl]-2,3-dihydro-1H-isoindol-1-one] | 94
Fc1cc(-c2nnc(C(F)F)o2)cc(-c2nccn2Cc2cccc(C(F)(F)F)c2)c1 [Example 67a] | 99
Fc1cc(-c2nnc(C(F)F)o2)cc(-c2nccn2Cc2ccc(F)c(Cl)c2)c1 [Example 68a, 2-(3-{1-[(3-chloro-4-fluorophenyl)methyl]-1H-imidazol-2-yl]-5-fluorophenyl)-5-(difluoromethyl)-1,3,4-oxadiazole] | 99
CN(C(=O)OC(C)(C)C)N1Cc2ncc(-c3nnc(C(F)F)o3)cc2C1=O [Example 68c, tert-butyl {3-[5-(difluoromethyl)-1,3,4-oxadiazol-2-yl]-5-oxo-5,7-dihydro-6H-pyrrolo[3,4-b]pyridin-6-yl}methylcarbamate] | 99
CN(Cc1ccc(F)cc1)N1Cc2ncc(-c3nnc(C(F)F)o3)cc2C1=O [Example 69c, 3-[5-(difluoromethyl)-1,3,4-oxadiazol-2-yl]-6-{[(4-fluorophenyl)methyl](methyl)amino}-6,7-dihydro-5H-pyrrolo[3,4-b]pyridin-5-one] | 100
FC(F)c1nnc(-c2cccc(-c3nccn3Cc3ccccc3)c2)o1 [Example 70a, 2-[3-(1-benzyl-1H-imidazol-2-yl)phenyl]-5-(difluoromethyl)-1,3,4-oxadiazole] | 98
CN(Cc1cncc(Cl)c1)N1Cc2ncc(-c3nnc(C(F)F)o3)cc2C1=O [Example 70c, 6-{[(5-chloropyridin-3-yl)methyl](methyl)amino}-3-[5-(difluoromethyl)-1,3,4-oxadiazol-2-yl]-6,7-dihydro-5H-pyrrolo[3,4-b]pyridin-5-one] | 100
Fc1cccc(Cn2ccnc2-c2cc(-c3nnc(C(F)F)o3)ccn2)c1 [Example 71a, 4-[5-(difluoromethyl)-1,3,4-oxadiazol-2-yl]-2-{1-[(3-fluorophenyl)methyl]-1H-imidazol-2-yl}pyridine] | 100
O=C1c2cc(-c3nnc(C(F)F)o3)cnc2CN1N(Cc1ccc(F)cc1)CC1CCOCC1 [Example 71c, 3-[5-(difluoromethyl)-1,3,4-oxadiazol-2-yl]-6-{[(4-fluorophenyl)methyl][(oxan-4-yl)methyl]amino}-6,7-dihydro-5H-pyrrolo[3,4-b]pyridin-5-one] | 100
N#Cc1cccc(Cn2ccnc2-c2cc(-c3nnc(C(F)F)o3)ccn2)c1 [Example 72a, 3-[(2-{4-[5-(difluoromethyl)-1,3,4-oxadiazol-2-yl]pyridin-2-yl}-1H-imidazol-1-yl)methyl]benzonitrile] | 100
Fc1ccc(Cc2ccnn2-c2cc(-c3nnc(C(F)F)o3)ccn2)cc1 [Example 73a, 4-[5-(difluoromethyl)-1,3,4-oxadiazol-2-yl]-2-[5-[(4-fluorophenyl)methyl]-1H-pyrazol-1-yl}pyridine] | 100
Fc1cccc(Cn2c(Br)cnc2-c2cc(-c3nnc(C(F)F)o3)ccn2)c1 [Example 74a, 2-{5-bromo-1-[(3-fluorophenyl)methyl]-1H-imidazol-2-yl}-4-[5-(difluoromethyl)-1,3,4-oxadiazol-2-yl]pyridine] | 99
N#Cc1ccc(Cn2ccnc2-c2cc(-c3nnc(C(F)F)o3)ccn2)cc1F [Example 75a, 4-[(2-{4-[5-(difluoromethyl)-1,3,4-oxadiazol-2-yl]pyridin-2-yl}-1H-imidazol-1-yl)methyl]-2-fluorobenzonitrile] | 99
Fc1ccc(Cn2ccnc2-c2cc(-c3nnc(C(F)F)o3)ccn2)nc1 [Example 76a, 4-[5-(difluoromethyl)-1,3,4-oxadiazol-2-yl]-2-{1-[(5-fluoropyridin-2-yl)methyl]-1H-imidazol-2-yl}pyridine] | 100
FC(F)c1nnc(-c2ccnc(-n3ncc4c3C(c3ccccc3)CCC4)c2)o1 (stereo not drawn) [Example 77a] | 99
Cc1ccc(Cn2ccnc2-c2cc(-c3nnc(C(F)F)o3)ccn2)cc1 [Example 78a] | 103
N#Cc1ccccc1Cn1ccnc1-c1cc(-c2nnc(C(F)F)o2)ccn1 [Example 79a] | 99
COc1ccc(Cn2ccnc2-c2cc(-c3nnc(C(F)F)o3)ccn2)cc1 [Example 80a, 4-[5-(difluoromethyl)-1,3,4-oxadiazol-2-yl]-2-{1-[(4-methoxyphenyl)methyl]-1H-imidazol-2-yl}pyridine] | 104
COc1cccc(Cn2ccnc2-c2cc(-c3nnc(C(F)F)o3)ccn2)c1 [Example 81a, 4-[5-(difluoromethyl)-1,3,4-oxadiazol-2-yl]-2-{1-[(3-methoxyphenyl)methyl]-1H-imidazol-2-yl}pyridine] | 101
N#Cc1cnc(-c2cc(-c3nnc(C(F)F)o3)ccn2)n1Cc1cccc(F)c1 [Example 82a, 2-{4-[5-(difluoromethyl)-1,3,4-oxadiazol-2-yl]pyridin-2-yl}-1-[(3-fluorophenyl)methyl]-1H-imidazole-5-carbonitrile] | 99
Cc1cccc(Cn2ccnc2-c2cc(-c3nnc(C(F)F)o3)ccn2)c1 [Example 83a, 4-[5-(difluoromethyl)-1,3,4-oxadiazol-2-yl]-2-{1-[(3-methylphenyl)methyl]-1H-imidazol-2-yl}pyridine] | 100
COc1ccccc1Cn1ccnc1-c1cc(-c2nnc(C(F)F)o2)ccn1 [Example 84a, 4-[5-(difluoromethyl)-1,3,4-oxadiazol-2-yl]-2-{1-[(2-methoxyphenyl)methyl}-1H-imidazol-2-yl}pyridine] | 100
Fc1cccc(Cn2ncnc2-c2cc(-c3nnc(C(F)F)o3)ccn2)c1 [Example 85a, 4-[5-(difluoromethyl)-1,3,4-oxadiazol-2-yl]-2-{1-[(3-fluorophenyl)methyl]-1H-1,2,4-triazol-5-yl}pyridine] | 101
Cc1ccccc1Cn1ccnc1-c1cc(-c2nnc(C(F)F)o2)ccn1 [Example 86a, 4-[5-(difluoromethyl)-1,3,4-oxadiazol-2-yl]-2-{1-[(2-methylphenyl)methyl]-1H-imidazol-2-yl}pyridine] | 100
Fc1cccc(Cc2ccnn2-c2cc(-c3nnc(C(F)F)o3)ccn2)c1 [Example 87a, 4-[5-(difluoromethyl)-1,3,4-oxadiazol-2-yl]-2-{5-[(3-fluorophenyl)methyl]-1H-pyrazol-1-yl}pyridine] | 99
Cn1ccc(OC2CCC(F)(F)CC2)c(-c2cc(-c3nnc(C(F)F)o3)ccn2)c1=O [Example 88a, 4′-[(4,4-difluorocyclohexyl)oxy]-4-[5-(difluoromethyl)-1,3,4-oxadiazol-2-yl]-1′-methyl[2,3′-bipyridine]-2′(1′H)-one] | 100
